Laboratory results published in US11987588B2, “Modulators of the beta-3 adrenergic receptor useful for the treatment or prevention of heart failure and disorders related thereto” (Arena Pharmaceuticals, Inc., priority 2017, dated 2024).

Molecular target: Beta-3 Adrenergic Receptor (Homo sapiens (Human), UniProt P13945)
Experiment: Homogeneous Time-Resolved Fluorescence (HTRF) cAMP antagonist assay, IC50 determination
Format: cell-based
Details: CHO-K1 cells stably expressing recombinant receptor, isoproterenol at EC90
Summary of the method: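 Antagonist mode: isoproterenol at its predetermined EC90 added after compound to recombinant CHO-K1 cells in IBMX-containing PBS, 1 h, room temperature. Compounds tested as 5-fold, 10-point dilutions, top final typically 10 or 100 μM. HTRF signal converted to cAMP via standard curve, giving IC50.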

Sequence of Beta-3 Adrenergic Receptor (P13945 whole entry, species assumed): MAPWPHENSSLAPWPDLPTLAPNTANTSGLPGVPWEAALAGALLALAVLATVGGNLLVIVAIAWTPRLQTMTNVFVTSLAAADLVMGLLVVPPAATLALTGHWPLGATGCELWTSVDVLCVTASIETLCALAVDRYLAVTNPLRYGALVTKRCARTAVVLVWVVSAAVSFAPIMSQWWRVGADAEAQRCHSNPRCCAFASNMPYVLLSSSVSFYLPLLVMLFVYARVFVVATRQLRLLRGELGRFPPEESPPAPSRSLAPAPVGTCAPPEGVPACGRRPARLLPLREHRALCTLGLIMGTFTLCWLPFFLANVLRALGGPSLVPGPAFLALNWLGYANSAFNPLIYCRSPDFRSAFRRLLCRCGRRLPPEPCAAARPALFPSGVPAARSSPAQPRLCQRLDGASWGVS

First: CNS(=O)(=O)c1cccc(OC[C@@H](O)CNC2COC3(CCN(S(=O)(=O)c4ccc5c(c4)CCC(C)(C)O5)CC3)C2)c1 (stereo partly drawn) [Compound 127, 3-((2S)-3-(8-(2,2-dimethylchroman-6-ylsulfonyl)-1-oxa-8-azaspiro[4.5]decan-3-ylamino)-2-hydroxypropoxy)-N-methylbenzenesulfonamide]
Second: CNS(=O)(=O)c1cccc(OC[C@@H](O)CNC2COC3(CCN(S(=O)(=O)c4ccc(F)c(F)c4)CC3)C2)c1 (stereo partly drawn) [Compound 141, 3-((2S)-3-(8-(3,4-difluorophenylsulfonyl)-1-oxa-8-azaspiro[4.5]decan-3-ylamino)-2-hydroxypropoxy)-N-methylbenzenesulfonamide]
The IC50 of the first is 2.4-fold lower: 14.9 nM for the first, 35.1 nM for the second. The first is the more potent here.

Going from `CNS(=O)(=O)c1cccc(OC[C@@H](O)CNC2COC3(CCN(S(=O)(=O)c4ccc5ccccc5c4)CC3)C2)c1` (stereo partly drawn) [Compound 1, 3-((2S)-2-hydroxy-3-(8-(naphthalen-2-ylsulfonyl)-1-oxa-8-azaspiro[4.5]decan-3-ylamino)propoxy)-N-methylbenzenesulfonamide] to `CNS(=O)(=O)c1cccc(OC[C@@H](O)CNC2COC3(CCN(S(=O)(=O)c4ccc5occc5c4)CC3)C2)c1` (stereo partly drawn) [Compound 331, 3-((2S)-3-(8-(benzofuran-5-ylsulfonyl)-1-oxa-8-azaspiro[4.5]decan-3-ylamino)-2-hydroxypropoxy)-N-methylbenzenesulfonamide], the IC50 rises from 5.4 nM to 19.6 nM (3.6-fold).

`CN(C)CCCNS(=O)(=O)c1cccc(OC[C@@H](O)CNC2COC3(CCN(S(=O)(=O)c4ccc5c(c4)N(C)CCO5)CC3)C2)c1` (stereo partly drawn) [Compound 316, N-(3-(dimethylamino)propyl)-3-((2S)-2-hydroxy-3-(8-(4-methyl-3,4-dihydro-2H-benzo[b][1,4]oxazin-6-ylsulfonyl)-1-oxa-8-azaspiro[4.5]decan-3-ylamino)propoxy)benzenesulfonamide] and `CN(C)CCCNS(=O)(=O)c1cccc(OC[C@@H](O)CNC2COC3(CCN(S(=O)(=O)c4ccc5c(c4)NC(=O)CO5)CC3)C2)c1` (stereo partly drawn) [Compound 311, N-(3-(dimethylamino)propyl)-3-((2S)-2-hydroxy-3-(8-(3-oxo-3,4-dihydro-2H-benzo[b][1,4]oxazin-6-ylsulfonyl)-1-oxa-8-azaspiro[4.5]decan-3-ylamino)propoxy)benzenesulfonamide] are within 1.5-fold of each other in IC50: 1940 nM for the first, 2000 nM for the second.

First: Cc1c(S(=O)(=O)N2CCC3(CC2)CC(NC[C@H](O)COc2cccc(S(=O)(=O)NCCCN(C)C)c2)CO3)cnn1-c1ccccc1 (stereo partly drawn) [Compound 313, N-(3-(dimethylamino)propyl)-3-((2S)-2-hydroxy-3-(8-(5-methyl-1-phenyl-1H-pyrazol-4-ylsulfonyl)-1-oxa-8-azaspiro[4.5]decan-3-ylamino)propoxy)benzenesulfonamide]
Second: O=S(=O)(NCCF)c1cccc(OC[C@@H](O)CN[C@H]2COC3(CCN(S(=O)(=O)c4ccc5ncccc5c4)CC3)C2)c1 [Compound 393, N-(2-fluoroethyl)-3-((S)-2-hydroxy-3-((R)-8-(quinolin-6-ylsulfonyl)-1-oxa-8-azaspiro[4.5]decan-3-ylamino)propoxy)benzenesulfonamide]
The IC50 of the first is 28-fold higher: 4010 nM for the first, 141 nM for the second. The second is the more potent here.

Going from `CNS(=O)(=O)c1cccc(OC[C@@H](O)CNC2COC3(CCN(S(=O)(=O)c4ccc(C)c(C#N)c4)CC3)C2)c1` (stereo partly drawn) [Compound 198, 3-((2S)-3-(8-(3-cyano-4-methylphenylsulfonyl)-1-oxa-8-azaspiro[4.5]decan-3-ylamino)-2-hydroxypropoxy)-N-methylbenzenesulfonamide] to `CNS(=O)(=O)c1cccc(OC[C@@H](O)CNC2COC3(CCN(S(=O)(=O)c4ccoc4)CC3)C2)c1` (stereo partly drawn) [Compound 192, 3-((2S)-3-(8-(furan-3-ylsulfonyl)-1-oxa-8-azaspiro[4.5]decan-3-ylamino)-2-hydroxypropoxy)-N-methylbenzenesulfonamide], the IC50 rises from 8.65 nM to 28.3 nM (3.3-fold).

`CCNS(=O)(=O)c1cccc(OC[C@@H](O)CNC2COC3(CCN(S(=O)(=O)c4cccc(Cl)c4)CC3)C2)c1` (stereo partly drawn) [Compound 224, 3-((2S)-3-(8-(3-chlorophenylsulfonyl)-1-oxa-8-azaspiro[4.5]decan-3-ylamino)-2-hydroxypropoxy)-N-ethylbenzenesulfonamide] and `CCNS(=O)(=O)c1cccc(OC[C@@H](O)CNC2COC3(CCN(S(=O)(=O)c4cccc(-c5ccc(CC#N)cc5)c4)CC3)C2)c1` (stereo partly drawn) [Compound 214, 3-((2S)-3-(8-(4′-(cyanomethyl)biphenyl-3-ylsulfonyl)-1-oxa-8-azaspiro[4.5]decan-3-ylamino)-2-hydroxypropoxy)-N-ethylbenzenesulfonamide] are within 1.5-fold of each other in IC50: 33.1 nM for the first, 31.4 nM for the second.

`CNS(=O)(=O)c1cccc(OC[C@@H](O)CN[C@H]2COC3(CCN(S(=O)(=O)c4cnc5cn[nH]c5c4)CC3)C2)c1` [Compound 502, 3-((S)-3-((R)-8-(1H-pyrazolo[4,3-b]pyridin-6-ylsulfonyl)-1-oxa-8-azaspiro[4.5]decan-3-ylamino)-2-hydroxypropoxy)-N-methylbenzenesulfonamide] and `CNS(=O)(=O)c1cccc(OC[C@@H](O)CN[C@H]2COC3(CCN(S(=O)(=O)c4cnc5ccc(C)cc5c4O)CC3)C2)c1` [Compound 533, 3-((S)-2-hydroxy-3-((R)-8-(4-hydroxy-6-methylquinolin-3-ylsulfonyl)-1-oxa-8-azaspiro[4.5]decan-3-ylamino)propoxy)-N-methylbenzenesulfonamide] are within 1.5-fold of each other in IC50: 18.9 nM for the first, 24.4 nM for the second.

Compared with `O=C1CCCN1CCNS(=O)(=O)c1cccc(OC[C@@H](O)CNC2COC3(CCN(S(=O)(=O)c4ccc5ccccc5c4)CC3)C2)c1` (stereo partly drawn) [Compound 164, 3-((2S)-2-hydroxy-3-(8-(naphthalen-2-ylsulfonyl)-1-oxa-8-azaspiro[4.5]decan-3-ylamino)propoxy)-N-(2-(2-oxopyrrolidin-1-yl)ethyl)benzenesulfonamide], `CNS(=O)(=O)c1cccc(OC[C@@H](O)CNC2COC3(CCN(S(=O)(=O)c4cccc(-c5ccco5)c4)CC3)C2)c1` (stereo partly drawn) [Compound 78, 3-((2S)-3-(8-(3-(furan-2-yl)phenylsulfonyl)-1-oxa-8-azaspiro[4.5]decan-3-ylamino)-2-hydroxypropoxy)-N-methylbenzenesulfonamide] is 4.1-fold lower in IC50: 84.9 nM for the first, 20.7 nM for the second.

Going from `CNS(=O)(=O)c1cccc(OC[C@@H](O)CN[C@H]2COC3(CCN(c4ncc(Cc5ccccc5)cn4)CC3)C2)c1` [Compound 570, 3-((S)-3-((R)-8-(5-benzylpyrimidin-2-yl)-1-oxa-8-azaspiro[4.5]decan-3-ylamino)-2-hydroxypropoxy)-N-methylbenzenesulfonamide] to `CNS(=O)(=O)c1cccc(OC[C@@H](O)CN[C@H]2COC3(CCN(c4nccc(C(=O)O)n4)CC3)C2)c1` [Compound 582, 2-((R)-3-((S)-2-hydroxy-3-(3-(N-methylsulfamoyl)phenoxy)propylamino)-1-oxa-8-azaspiro[4.5]decan-8-yl)pyrimidine-4-carboxylic acid], the IC50 rises from 143 nM to 100000 nM (700-fold).

Compared with `CNS(=O)(=O)c1cccc(OC[C@@H](O)CNC2COC3(CCN(S(=O)(=O)c4cccc(-c5cncc(C#N)c5)c4)CC3)C2)c1` (stereo partly drawn) [Compound 370, 3-((2S)-3-(8-(3-(5-cyanopyridin-3-yl)phenylsulfonyl)-1-oxa-8-azaspiro[4.5]decan-3-ylamino)-2-hydroxypropoxy)-N-methylbenzenesulfonamide], `CNS(=O)(=O)c1cccc(OC[C@@H](O)CNC2COC3(CCN(S(=O)(=O)c4cccc(-c5ccc(CN)nc5)c4)CC3)C2)c1` (stereo partly drawn) [Compound 387, 3-((2S)-3-(8-(3-(6-(aminomethyl)pyridin-3-yl)phenylsulfonyl)-1-oxa-8-azaspiro[4.5]decan-3-ylamino)-2-hydroxypropoxy)-N-methylbenzenesulfonamide] is 1.6-fold lower in IC50: 47.8 nM for the first, 30.8 nM for the second.

`CNS(=O)(=O)c1cccc(OC[C@@H](O)CNC2COC3(CCN(S(=O)(=O)c4cccc(-c5ccc(CN[C@@H](CO)C(N)=O)cc5)c4)CC3)C2)c1` (stereo partly drawn) [Compound 345, (2S)-3-hydroxy-2-((3′-(3-((S)-2-hydroxy-3-(3-(N-methylsulfamoyl)phenoxy)propylamino)-1-oxa-8-azaspiro[4.5]decan-8-ylsulfonyl)biphenyl-4-yl)methylamino)propanamide] and `CC(C)NCc1ccc(-c2cccc(S(=O)(=O)N3CCC4(CC3)C[C@@H](NC[C@H](O)COc3cccc(S(N)(=O)=O)c3)CO4)c2)cc1` [Compound 440, 3-((S)-2-hydroxy-3-((R)-8-(4′-((isopropylamino)methyl)biphenyl-3-ylsulfonyl)-1-oxa-8-azaspiro[4.5]decan-3-ylamino)propoxy)benzenesulfonamide] are within 1.5-fold of each other in IC50: 107 nM for the first, 112 nM for the second.

Compared with `CNS(=O)(=O)c1cccc(OC[C@@H](O)CNC2COC3(CCN(S(=O)(=O)c4cccc(-c5cnn(CC6CC6)c5)c4)CC3)C2)c1` (stereo partly drawn) [Compound 82, 3-((2S)-3-(8-(3-(1-(cyclopropylmethyl)-1H-pyrazol-4-yl)phenylsulfonyl)-1-oxa-8-azaspiro[4.5]decan-3-ylamino)-2-hydroxypropoxy)-N-methylbenzenesulfonamide], `CNS(=O)(=O)c1cccc(OC[C@@H](O)CNC2COC3(CCN(S(=O)(=O)c4cn(C)c(C)n4)CC3)C2)c1` (stereo partly drawn) [Compound 119, 3-((2S)-3-(8-(1,2-dimethyl-1H-imidazol-4-ylsulfonyl)-1-oxa-8-azaspiro[4.5]decan-3-ylamino)-2-hydroxypropoxy)-N-methylbenzenesulfonamide] is 13-fold higher in IC50: 15.9 nM for the first, 203 nM for the second. The first is the more potent here.

Compared with `CNS(=O)(=O)c1cccc(OC[C@@H](O)CN[C@H]2COC3(CCN(S(=O)(=O)c4c[nH]c5ncccc45)CC3)C2)c1` [Compound 507, 3-((S)-3-((R)-8-(1H-pyrrolo[2,3-b]pyridin-3-ylsulfonyl)-1-oxa-8-azaspiro[4.5]decan-3-ylamino)-2-hydroxypropoxy)-N-methylbenzenesulfonamide], `CNS(=O)(=O)c1cccc(OC[C@@H](O)CNC2COC3(CCN(S(=O)(=O)c4c(C)noc4C)CC3)C2)c1` (stereo partly drawn) [Compound 188, 3-((2S)-3-(8-(3,5-dimethylisoxazol-4-ylsulfonyl)-1-oxa-8-azaspiro[4.5]decan-3-ylamino)-2-hydroxypropoxy)-N-methylbenzenesulfonamide] is 3.2-fold lower in IC50: 58.8 nM for the first, 18.1 nM for the second.
